According to US20180228815A1, “NARINGENIN AND ASIATIC ACID COMBINATION TREATMENT OF CANCERS” (The Chinese University of Hong Kong, priority 2016, published 2018):
Like-named read-outs stand apart in the source and are kept apart here.

Assays:
NK1.1+ NK cells = experiment: Two-color immunofluorescence of IFN-γ+ and granzyme B+ NK cells in LLC tumor microenvironment; format: in vivo, mouse
Experimental: FIGS. 13A-13G. […] NK1.1+ cells (green), IFN-γ+ or granzyme B+ cells (red), DAPI (blue). Each error bar represents the mean±SEM for groups of three to four mice. * p<0.05, ** p<0.01, *** p<0.001 compared to Ctrl; ## p<0.01, ### p<0.001 as indicated. Scale bar, 100 μm. […] (FIGS. 13E, 13F) Effect of AA (10 μmol), NG ([…]), and their combination on levels of IFN-γ and granzyme B in supernatant of cultured splenic NK cells with TGF-β1 (5 ng/ml) detected by ELISA. (FIG. 13G) NK cell cytotoxicity assay with LLC as target cells at E:T ratio of 5:1, 10:1 and 20:1. Each error bar represents the mean±SEM for groups of three independent experiments. * p<0.05, ** p<0.01, *** p<0.001 compared to TGF-β1; # p<0.05, ## p<0.01, ### p<0.001 as indicated. Immunofluorescence staining was performed with 5 μm PLP fixed frozen sections of mouse tumor tissue to detect NK cell infiltration in tumor microenvironment and the protein levels of p-Smad3, Smad7, IFN-γ and granzyme B in these tumor infiltrated NK cells. Primary antibodies used for immunofluorescence staining include Alexa488 conjugated anti-mouse NK-1.1 (Biolegend, CA, USA), PE conjugated anti-mouse NKp46 (eBioscience Inc., CA, USA), anti-p-Smad2/3 (Santa Cruz Biotechnology, Santa Cruz, Calif.), anti-Smad7, anti-interferon gamma and anti-granzyme B (Abcam, MA, USA). All slides were mounted with DAPI containing mounting medium then analyzed with fluorescence microscope (Leica Microsystems, Wetzlar, Germany).

p-Smad3, Smad7 = experiment: Western blot of p-Smad3 and Smad7 in bone marrow-derived NK cells with TGF-β1; format: cell-based, mouse; conditions: 10 μM of AA, 100 μM of NG; TGF-β1 (5 ng/ml)
Experimental: FIGS. 14A-14C. […] (FIGS. 14A, 14B) Two-color immunofluorescence detecting NK1.1+ p-Smad3+ and NK1.1+ Smad7+ NK cells in LLC tumor microenvironment. NK1.1+ cells (green), p-Smad3+ or Smad7+ cells (red), DAPI (blue). […] Scale bar, […]. […] To further explore the mechanism of combination therapy facilitating NK cell immunity against cancer in TGF-β rich microenvironment, 10 μM of AA and 100 μM of NG (according to the molar ratio in vivo) were applied on bone marrow-derived NK cells in vitro. […] After euthanasia, bone marrow cells were isolated from C57BL/6 mice following the protocol as previously described (10). Bone marrow cells were then seeded at the density of 1×10^6 cells/ml in MEMα medium (Gibco, Thermo Fisher Scientific Inc., MA, USA) containing 10% FBS supplemented with 1 ng/ml IL-7, 10 ng/ml Flt3L, 30 ng/ml SCF, 50 ng/ml IL-15 (Peprotech, NJ, USA) and […] β-Mercaptoethanol (Gibco, Thermo Fisher Scientific Inc., MA, USA) and cultured for 4 days. Then transferred cells to MEMα medium containing 10% FBS supplemented with 50 ng/ml IL-15, 20 ng/ml IL-2 and […] β-Mercaptoethanol to induce NK cells maturation for another 3 days. Tumor tissues and cultured NK cells were lysed with ice-cold RIPA buffer, and then protein was isolated as previously described (2 6). Membranes were blocked with 5% BSA in PBS for 1 hour at room temperature before incubated with primary antibodies against Smad7, Id2, β-actin (Santa Cruz Biotechnology, Santa Cruz, Calif., USA), p-Smad3 and IRF2 (Cell signaling, MA, USA) overnight at 4° C., subsequently incubated with IRDye 800-conjugated secondary antibodies (Rockland immunochemicals, PA, USA). Target protein expression was then detected by LiCor/Odyssey infrared image system (LI-COR Biosciences, NE, USA) and analyzed with Image J software (NIH, Bethesda, Md., USA).

[1] = format: in vivo
Experimental: FIG. 1. Determination of a safe dosage of AA or NG in normal mice. Groups of 4 normal mice were treated with different dosages of asiatic acid (AA) or naringenin (NG) for two weeks and various parameters were measured to determine a safe dosage for the use as therapeutic dose in cancer-bearing mice. As indicated by a highlighted box, AA at 10 mg/kg and NG at 50 mg/kg was selected. Each bar represents the mean±SEM for groups of 4 mice. * p<0.05, ** p<0.01 compared to untreated mice (BLK)
A safe dosage of HLPC-purified naringenin (NG) and asiatic acid (AA) was first determined in normal mice by peritoneal injection with different dosages of AA or NG for toxicity assays and a dose of AA at 10 mg/kg body weight and NG at 50 mg//Kg body weight is selected for further examination of the therapeutic efficacy on cancer (FIG. 1). The effects of combined use of a safe dosage of naringenin (NG, 10 mg/kg) and asiatic acid (AA, 50 mg/kg) at a ratio of […] was selected and the therapeutic effect on cancer was tested in two syngeneic mouse models of invasive lung carcinoma (LLC) and melanoma (B16F10). […] Thus, the combination of NG and AA presents as a new emerging and promising therapy for tumor.

[2] = Systemic toxicity in B16F10 melanoma-bearing mice; conditions: mouse, in vivo
Description: FIG. 5. […] Each bar represents the mean±SEM for groups of 6 mice.

B16F10 melanoma cells = experiment: NK cell cytotoxicity assay (LDH release); format: cell-based, mouse; conditions: E:T ratio of 5:1, 10:1 and 20:1
Experimental: It was next assessed whether the combination therapy enhances the tumor-killing capacity of NK cells by co-culturing […] NK cells with B16F10 melanoma cells at ratio of 5:1, 10:1 and 20:1. […] B16F10 melanoma cells were harvested as target cells and bone marrow-derived NK cells treated with AA or NG for 24 hours were harvested as effector cells. Cells were thoroughly washed and seeded in 96-well plates at the effector: target (E:T) ratios of 5:1, 10:1 and 20:1. Incubated in 5% CO2 incubator at 37° C. for 6 hours then detect the LDH release of each well with CytoTox 96® Non-Radioactive Cytotoxicity Assay kit (Promega Corporation, WI, USA). Read absorbance at 490 nm and calculated the percentage of NK cell mediated cytotoxicity with the following formula.

B16F10 melanoma = B16F10 melanoma syngeneic mouse tumor model, tumor growth; format: in vivo; conditions: for tumor growth at higher dosages: dosages higher than 10 mg/kg AA or 50 mg/kg NG; for B16F10 melanoma volume and weight: monotherapy, different doses; for melanoma progression: single treatment, 10 mg/kg AA or 50 mg/kg NG
Description: B16F10 melanoma syngeneic tumor model was generated in C57/Bl6 male mice (aged week 8 and 25 g body weight) via subcutaneous injection of 1×10^6 B16F10 cells. Lewis Lung Cancer syngeneic tumor model was also generated in C57/Bl6 male mice via subcutaneous injection of 2×10^6 luciferase-labeled LLC cells. When average tumor size reached 50 mm^3, mice were randomly divided into four groups respectively receiving drug administration as described below. Tumor progression was monitored by calculating tumor volume with vernier calipers as well as by bioluminescence imaging with IVIS Spectrum system (Xenogen, PerkinElmer, Inc., MA, USA). All animal experiments were carried out by a protocol approved by Animal Ethics Experimental Committee at the Chinese University of Hong Kong. Two TCM-based drugs were used in this study, including asiatic acid (95% HLPC-purified, Nanning, China) and naringenin (98% HLPC-purified, Xian, China). Both drugs were dissolved in DMSO and Tween-80 at the ratio of 9:1, which was further diluted 10 times with saline as working solution. […] Studies were carried out by a protocol approved by Animal Ethics Experimental Committee at the Chinese University of Hong Kong.

B16F10 tumor cells = experiment: TGF-beta1-induced VEGF mRNA expression by tumor cells (real-time PCR); format: cell-based
[3] = tested on: bone marrow-derived NK cells; experiment: Flow cytometry of bone marrow-derived NK cell differentiation (NK1.1+ CD122+); format: cell-based, mouse; conditions: for inhibitory effect of TGF-β1 on NK cell development (NK1.1+ CD122+): TGF-β1 (5 ng/ml)
Experimental: FIGS. 15A-15B. Combination of AA and NG attenuates TGF-β1 induced inhibition on NK cell differentiation. […] (FIG. 15B) Flow cytometry detects that the effect of AA, NG, and their combination on bone marrow-derived NK differentiation in response to TGF-β1 (5 ng/ml). Each error bar represents the mean±SEM for groups of three independent experiments. *** p<0.001 compared to TGF-β1; ### p<0.001 as indicated.
After euthanasia, bone marrow cells were isolated from C57BL/6 mice following the protocol as previously described (10). Bone marrow cells were then seeded at the density of 1×10^6 cells/ml in MEMα medium (Gibco, Thermo Fisher Scientific Inc., MA, USA) containing 10% FBS supplemented with 1 ng/ml IL-7, 10 ng/ml Flt3L, 30 ng/ml SCF, 50 ng/ml IL-15 (Peprotech, NJ, USA) and […] β-Mercaptoethanol (Gibco, Thermo Fisher Scientific Inc., MA, USA) and cultured for 4 days. Then transferred cells to MEMα medium containing 10% FBS supplemented with 50 ng/ml IL-15, 20 ng/ml IL-2 and […] β-Mercaptoethanol to induce NK cells maturation for another 3 days.
Peripheral blood NK cells and cultured NK cells were analyzed using various markers as previously described (10), including rat anti-mouse CD16/CD32 antibody (BD Pharmingen, BD Biosciences, CA, USA), APC-conjugated anti-mouse NK1.1, PE-conjugated anti-mouse NKp46, PE-conjugated anti-mouse CD122 (eBioscience Inc., CA, USA) and Alexa 488-conjugated anti-mouse/human CD11b Antibody (Biolegend, CA, USA). After immunostaining, cells were resuspended with 200 μl staining buffer and analyzed with BD Accuri™ C6 Cytometer (BD Biosciences, CA, USA).

Id2, IRF2 = experiment: Id2 and IRF2 expression in bone marrow-derived NK cells with TGF-β1 (real-time PCR, western blot); format: cell-based, mouse; conditions: bone marrow-derived NK cells in vitro
Experimental: After euthanasia, bone marrow cells were isolated from C57BL/6 mice following the protocol as previously described (10). Bone marrow cells were then seeded at the density of 1×10^6 cells/ml in MEMα medium (Gibco, Thermo Fisher Scientific Inc., MA, USA) containing 10% FBS supplemented with 1 ng/ml IL-7, 10 ng/ml Flt3L, 30 ng/ml SCF, 50 ng/ml IL-15 (Peprotech, NJ, USA) and […] β-Mercaptoethanol (Gibco, Thermo Fisher Scientific Inc., MA, USA) and cultured for 4 days. Then transferred cells to MEMα medium containing 10% FBS supplemented with 50 ng/ml IL-15, 20 ng/ml IL-2 and […] β-Mercaptoethanol to induce NK cells maturation for another 3 days. […] Tumor tissues and cultured NK cells were lysed with ice-cold RIPA buffer, and then protein was isolated as previously described (2 6). Membranes were blocked with 5% BSA in PBS for 1 hour at room temperature before incubated with primary antibodies against Smad7, Id2, β-actin (Santa Cruz Biotechnology, Santa Cruz, Calif., USA), p-Smad3 and IRF2 (Cell signaling, MA, USA) overnight at 4° C., subsequently incubated with IRDye 800-conjugated secondary antibodies (Rockland immunochemicals, PA, USA). Target protein expression was then detected by LiCor/Odyssey infrared image system (LI-COR Biosciences, NE, USA) and analyzed with Image J software (NIH, Bethesda, Md., USA).

Molecule | IFN-γ-producing NK cells (IFN-γ+ NK1.1+ cells) (NK1.1+ NK cells) | granzyme B-secreting NK cells (GB+ NK1.1+ cells) (NK1.1+ NK cells) | TGF-β1-increased phosphorylation level of Smad3 (p-Smad3, Smad7) | TGF-β1-induced suppression of Smad7 expression (p-Smad3, Smad7) | safe dosage selected for use as therapeutic dose ([1]; mouse, in vivo, 2 weeks) | systemic toxicity (peripheral white blood cell counts, serum LDH, AST and ALT, creatinine) [2] | NK cell-mediated cytotoxicity against melanoma cells (B16F10 melanoma cells) | tumor growth at higher dosages (B16F10 melanoma) | B16F10 melanoma volume and weight (B16F10 melanoma) | melanoma progression (B16F10 melanoma) | TGF-beta1-induced angiogenesis (VEGF mRNA expression) (B16F10 tumor cells; B16F10 cultured with TGF-beta1 (2 ng/ml), AA at luM) | inhibitory effect of TGF-β1 on NK cell development (NK1.1+ CD122+) [3] | TGF-β1-induced suppression of IRF2 (Id2, IRF2) | TGF-β1-induced suppression of Id2 (Id2, IRF2) | NK1.1+ CD122+ cell (immature NK cells) proportion ([3]; TGF-β1 at 5 ng/ml, 80% without TGF-β1) | safe dosage selected for use as therapeutic dose ([1]; normal mice treated for two weeks, groups of 4) | TGF-beta1-induced angiogenesis (VEGF mRNA expression), inhibition by AA with NG added (B16F10 tumor cells; B16F10 with TGF-beta1 (2 ng/ml), NG from 0.5 to 250 uM added to AA at luM)
C[C@H]1[C@H](C)CC[C@]2(C(=O)O)CC[C@]3(C)C(=CC[C@@H]4[C@@]5(C)C[C@@H](O)[C@H](O)[C@@](C)(CO)[C@@H]5CC[C@]43C)[C@H]12 [AA, Asiatic acid] | significantly increased | significantly increased | attenuated | capable of restoring | 10 mg/kg | do not cause systemic toxicity | increased | no further significant improvement | Dose-dependent inhibitory effect | effectively inhibited | significantly inhibit | moderately attenuated | significantly reduced | significantly reduced |  |  | 
TGF-β1: cytokine added to NK cell cultures to suppress NK cell development [reference compound] |  |  |  |  |  |  |  |  |  |  |  |  |  |  | 11% |  | 
O=C1CC(c2ccc(O)cc2)Oc2cc(O)cc(O)c21 (centres unmarked) [NG, 5,7-dihydroxy-2-(4-hydroxyphenyl)chroman-4-one] | significantly increased | significantly increased | attenuated | capable of restoring |  | do not cause systemic toxicity | increased | no further significant improvement | Dose-dependent inhibitory effect | effectively inhibited |  | moderately attenuated | significantly reduced | significantly reduced |  | 50 mg/kg | enhanced
